Here are results for 1 substance from US20180369230A1, “TARGETED SELECTION OF PATIENTS FOR TREATMENT WITH SPECIFIC CORTISTATIN DERIVATIVES” (President and Fellows of Harvard College, priority 2015, published 2018).

The test system of experiment [1] is MOLM-14 cells. The experiment can be described thus: Gene expression, gene set enrichment analysis (GSEA). It is filed as cell-based, human. Conditions: MOLM-14, 3 h 25 nM. The method, then:
Leukemia cells were plated (12-well) in triplicate at 500,000-800,000 cells per ml and incubated in the presence of vehicle (0.1% DMSO) or CA (25 nM 3 h for K562, MOLM-14 and MV4;11; 10 nM 24 h for MOLM-14; 25 nM 4 h for SET-2, n=3 for each cell line). Cells were then washed twice with cold PBS, and snap frozen. RNA was isolated (RNeasy Plus Microkit, Qiagen or TRIzol, Life Technologies), processed, and, for K562, MOLM-14 and MV4;11, hybridized to the Human U133 Plus 2.0 microarray (Affymetrix). Microarrays were processed with Bioconductor packages affyQCReport for quality control and affy for background correction, summarization, and normalization using rma. Probe sets present in at least 1 sample (based on affy mas5call) and for which the interquartile range was >log2(1.2) were retained for further analysis. The limma Bioconductor package was used for differential expression analysis of CA-treated versus DMSO control samples (Benjamini-Hochberg adjusted P<0.05). SET-2 and HCT 116 gene expression was measured by RNA-seq. SET-2 RNA-seq libraries were prepared and processed using the Ion Torrent workflow. Reads were aligned in two passes, first with rnaStar (v.2.3.0e) then with BWA (v.0.7.5a) for remaining unmapped reads, both using default parameters. Mapped reads were merged and counted using HTSeq (v.0.5.3p3) with -s yes -m intersection-strict. The Bioconductor package DESeq was used for DE analysis (FDR<0.05 and twofold change) and normalization. HCT116 cells were grown to approximately 80% confluence and were treated with either 100 nM CA or DMSO for 3 h (n=3). Cells were then washed twice with cold PBS and scraped into TRIzol reagent (Life Technologies). After collecting the RNA, it was further purified using an RNeasy mini kit (Qiagen) with an on-column DNase I digestion. Libraries for Illumina sequencing were generated via the Illumina TruSEQ stranded mRNA prep kit. Samples were run in a single lane on an Illumina HiSEQ 2000 sequencer with a single read flow cell using 1×50-bp reads and a 6-cycle index read. Reads were mapped to the hg19 reference genome using Tophat2 v.2.0.6 with custom settings including the setting of -library-type fr- firstrand to appropriately account for the stranded nature of the protocol. HTSeq v.0.6.1 was used to obtain read counts over annotated genes and differentially expressed genes were called by DESeq v.1.10.1 with a padj value of less than 0.01. Counts were normalized for GSEA using the limma voom function. Expression data for the I-BET151 comparison were downloaded from ArrayExpress (https://www.ebi.ac.uk/arrayexpress, accession E-MTAB-774) and processed files used as is. Gene lists were submitted to the DAVID web server (http://david.abcc.ncifcrf.gov) for functional annotation. GSEA version 2.09 was carried out using signal-to-noise on natural values as the metric. Signatures included curated gene sets (C2, v.3) downloaded from the Broad's MSigDB as well as signatures curated from in-house and published data sets.
The curated gene sets were analyzed together with over 4,000 signatures including the Broad Molecular Signatures database (C2).

The test system of experiment [2] is RUNX1. The experiment can be described thus: RUNX1 recruitment to genomic loci. The experiment is classed as cell-based. The conditions noted are these: FIG. 11.
In experiment [3] the test system is A498. Description: Soft agar growth assay. The experiment is classed as cell-based. The conditions noted are these: A498, clear cell renal cell carcinoma, VHL negative, 100 nM. Here is the method:
(§1) For the 62 cell lines 96 well suspension cell culture plates were prepared. 100 μL of the soft agar bottom layer (0.6% final concentration in complete medium) was poured and left to solidify. 50 μL of the soft agar top layer (0.4% final concentration) containing the corresponding cells and cell number were then added on top, solidified and incubated at 37° C., 10% CO2. After the soft agar had solidified, the test items were added at indicated final concentrations into the inner wells of the plate. Subsequently, the assay was incubated in cell culture incubators for 8 to 14 days. Finally, the assay was developed using Alamar Blue and upon 1-5 h of incubation at 37° C. fluorescence intensity was determined (excitation: 560 nm; emission: 590 nm). As low control, cells were treated with 1E-05M Staurosporine (6fold values). As high control, cells were treated with 0.1% DMSO (solvent control, 6 fold values).
(§2) Raw data were converted into percent soft agar growth relative to high controls (solvent 0.1% DMSO) and low controls (1E-05M Staurosporine), which were set to 100% and 0%, respectively. The results are tabulated in FIGS. 15A, 15B, and 15C and Table 4 below.

The test system of experiment [4] is NCI-N87. Description: Soft agar growth assay. The experiment is classed as cell-based. Conditions: NCI-N87, Gastric cancer, HER2 overexpression, 100 nM. Here is the method:
as §1, §2

Experiment [5] deals with MCF-7. Description: Soft agar growth assay. It is filed as cell-based. The conditions noted are these: MCF-7, Breast cancer, ER-alpha positive, 100 nM. Here is the method:
as §1, §2

Experiment [6] has as its system T47D. The experiment can be described thus: Soft agar growth assay. It is filed as cell-based. Conditions: Breast cancer, ER-alpha positive, 100 nM. Here is the method:
as §1, §2

Experiment [7] relates to U87MG. Description: Soft agar growth assay. The experiment is classed as cell-based. Conditions: Glioma, inactivating mutations in ETV1, FLI1 and SMC3, 100 nM. The method, then:
as §1, §2

For experiment [8], the system named is Caki-2. Description: Soft agar growth assay. It is filed as cell-based. Conditions: Caki-2, clear cell renal cell carcinoma, VHL negative, 100 nM. The method, then: as §1, §2
Experiment [9] deals with SK-N-SH. The experiment can be described thus: Soft agar growth assay. The experiment is classed as cell-based. Conditions: Neuroblastoma, 100 nM. The method, then: as §1, §2
For experiment [10], the system named is SK-N-F1. The experiment can be described thus: Soft agar growth assay. It is filed as cell-based. Conditions: SK-N-F1, Neuroblastoma, 100 nM. The method, then:
as §1, §2

In experiment [11] the test system is MKN-45. The experiment can be described thus: Soft agar growth assay. It is filed as cell-based. The conditions noted are these: MKN-45, Gastric cancer, MET amplification, 100 nM. The method, then: as §1, §2
In experiment [12] the test system is RL95-2. Description: Soft agar growth assay. It is filed as cell-based. The conditions noted are these: RL95-2, Endometrial cancer, ER-alpha positive, 100 nM. Here is the method: as §1, §2
The subject of experiment [13] is HCC827. Description: Soft agar growth assay. It is filed as cell-based. Conditions: HCC827, Non small cell lung carcinoma, EGFR mutation, 100 nM. The method, then:
as §1, §2

The test system of experiment [14] is SK-N-MC. The experiment can be described thus: Soft agar growth assay. It is filed as cell-based. The conditions noted are these: Neuroblastoma, EWS-FLI1, 100 nM. Here is the method: as §1, §2
Experiment [15] relates to SK.BR-3. The experiment can be described thus: Soft agar growth assay. It is filed as cell-based. The conditions noted are these: SK.BR-3, Breast cancer, HER2 overexpression, 100 nM. Here is the method:
as §1, §2

Experiment [16] has as its system SK-ES-1. Description: Soft agar growth assay. The experiment is classed as cell-based. The conditions noted are these: SK-ES-1, Osteosarcoma, EWS-FLI1, 100 nM. The method, then: as §1, §2

Consider Cortistatin A, for which the NES is recorded as 2.50 in [1] (signature: Downregulated by RUNX1-RUNX1T1 in CD34+ cord blook cells); 2.00 in [1] (signature: Downregulated by RUNX1 knowckdown in Jurkat cells); 2.21 in experiment [1] (signature: Downregulated by RUNX1 knowckdown in Kasumi-1 cells); 2.56 in experiment [1] (signature: Upregulated by C/EBPα in Burkitt lymphoma cells); 2.22 in [1] (signature: Upregulated by C/EBPα in K562 cells); 2.22 in [1] (signature: Upregulated by C/EBPα in KCL22 cells). The same substance displayed an NES in experiment [1] (signature: Upregulated by RUNX1-RUNX1T1 knockdown in Kasumi-1 cells) of 2.78. In addition, the “RUNX1 recruitment to loci” value in [2] is “recruited”. Further, the “% growth rel. to vehicle” value in [3] is on record as 51%; in [4], 26%; in [5] it was 49%; in experiment [6], 48%; in [7] it was 36%; in experiment [8] it was 18%. The “% growth rel. to vehicle” value is recorded as 29% in [9]; 30% in experiment [10]; 27% in [11]; 16% in [12]; 23% in experiment [13]; 45% in [14]. Further, the entries for the “% growth rel. to vehicle” value in experiment [15] and in experiment [16] were 22% and 36%, respectively.
